This note sets out measurements from patent US20260198497A1, “A BENZENE RING-SUBSTITUTED PYRIMIDINECARBOXYLIC ACID COMPOUND, PREPARATION METHOD THEREFOR, HERBICIDAL COMPOSITION AND APPLICATION THEREOF” (QINGDAO KINGAGROOT CHEMICAL COMPOUND CO., LTD., priority 2023, published 2026).

The test relates to Veronica. The experiment in a line: Post-emergence test on weeds. It is filed as in vivo. Also noted: key: 0 = no effect, 9 = completely dead (levels by growth control rate). The following applies: 30 g a.i./ha, 3 weeks after application. The text has this: The criteria for activity levels of plant damage (i.e., growth control rate) are as follows: • Level 9: completely dead; • Level 8: growth control rate is greater than or equal to 90% and less than 100%; • Level 7: growth control rate is greater than or equal to 80% and less than 90%; • Level 6: growth control rate is greater than or equal to 70% and less than 80%; • Level 5: growth control rate is greater than or equal to 50% and less than 70%; • Level 4: growth control rate is greater than or equal to 30% and less than 50%; • Level 3: growth control rate is greater than or equal to 20% and less than 30%; • Level 2: growth control rate is greater than or equal to 10% and less than 20%; • Level 1: growth control rate is less than 10%; • Level 0: no effect.
The above growth control rates are fresh weight control rates.
Monocotyledonous and dicotyledonous weed seeds (Descurainia sophia, Capsella bursa-pastoris, Abutilon theophrasti, Galium spurium, Stellaria media, Lithospermum arvense, Rorippa indica, Alopecurus aequalis, Alopecurus japonicus, Eleusine indica, Beckmannia syzigachne, Sclerochloa dura, Erigeron canadensis, Phleum paniculatum, Veronica, Bromus japonicus, Aegilops tauschii, Phalaris arundinacea, Amaranthus retroflexus, Chenopodium, Commelina communis, Cichorium endivia, Convolvulus arvensis, Cirsium arvense, Solanum nigrum, Acalypha australis, Digitaria sanguinalis, Echinochloa crusgalli, Setaria viridis, Setaria pumila, Leptochloa chinensis, Monochoria vaginalis, Sagittaria trifolia, Schoenoplectiella juncoides, Cyperus rotundus, Cyperus iria, Cyperus difformis, Fimbristylis, Portulaca oleracea, Xanthium sibiricum, Ipomoea nil, Eschenbachia japonica, etc.) and major crop seeds (wheat, maize, paddy rice, soybean, cotton, oilseed rape, millet, sorghum, potato, sesame, castor plant, Chinese cabbage, radish, etc.) were placed in plastic pots filled with soil and then covered with 0.5-2 cm of soil to allow them to grow in a favorable greenhouse environment. Two weeks after sowing, the test plants were treated at the stage of 2-3 leaves. The test compounds of the present invention were individually dissolved with acetone, then added with Tween® 80, with 1.5 L/ha of methyl oleate emulsifiable concentrate as a synergist, diluted into solution of a certain concentration using a certain amount of water, and sprayed to plants using a spray tower. After drug application, the experimental results on weeds were collected after 3 weeks of cultivation in a greenhouse. The compounds were applied at 120, 60, 30, and 15 g a.i./ha in triplicate, and the results were averaged.
Consider `COc1c(N)nc(-c2ccc(C(F)(F)F)c(OC)c2F)nc1C(=O)OCCCl` [Compound 59], for which the “activity level of plant damage (growth control rate), Veronica” value (“activity level of plant damage” for short) was 9. As for `COc1cc(-c2nc(N)c(OC)c(C(=O)SC)n2)ccc1C(F)(F)F` [Compound 155], the figure is 9.

Regarding `CCCOC(=O)c1nc(-c2ccc(Br)c(OC)c2F)nc(N)c1OC` [Compound 203], the “activity level of plant damage” value turned out to be 9. In the case of `COc1c(N)nc(-c2ccc(Br)c(OC)c2F)nc1C(=O)OCCSC` [Compound 214] it was 9.

In the case of `COc1c(N)nc(-c2ccc(C(F)(F)F)c(OC)c2F)nc1C(=O)OC1CCCC1` [Compound 119], the “activity level of plant damage” value worked out at 9.

Consider `COc1c(N)nc(-c2ccc(C(F)(F)F)c(OC)c2F)nc1C(=O)OCC1CC1` [Compound 117], for which the “activity level of plant damage” value stood at 9.

For `COc1c(N)nc(-c2ccc(C(F)(F)F)c(OC)c2F)nc1C(=O)OCC(C)F` (stereo not shown) [Compound 191], the “activity level of plant damage” value was 9. In the case of `COc1c(N)nc(-c2ccc(C(F)(F)F)c(OC)c2F)nc1C(=O)Oc1ccccc1` [Compound 129] it was 9; in that of `CCOC(=O)c1nc(-c2ccc(Br)c(OC)c2F)nc(N)c1OC` [Compound 202], 9; in that of `COc1c(N)nc(-c2ccc(C(F)(F)F)c(OC)c2F)nc1C(=O)OCCC(F)(F)F` [Compound 64], 9. As for `COc1c(N)nc(-c2ccc(C(F)(F)F)c(OC)c2F)nc1C(=O)OCC(OC)OC` [Compound 76], the figure is 9; as for `COc1c(N)nc(-c2ccc(C(F)(F)F)c(OC)c2F)nc1C(=O)OCCCF` [Compound 63], 9; as for `CCCOCCOC(=O)c1nc(-c2ccc(C(F)(F)F)c(OC)c2F)nc(N)c1OC` [Compound 22], 9. In the case of `COc1c(N)nc(-c2ccc(C(F)(F)F)c(OC)c2F)nc1C(=O)OCc1ccccc1F` [Compound 133] it was 9; in that of `COc1cc(-c2nc(N)c(OC)c(C(=O)OCc3cccnc3)n2)ccc1C(F)(F)F` [Compound 151], 9; in that of `COc1c(N)nc(-c2ccc(C(F)(F)F)c(OC)c2F)nc1C(=O)ON=C(C)C(C)(C)C` [Compound 192], 9. For the compound `CCSC(=O)c1nc(-c2ccc(Br)c(OC)c2F)nc(N)c1OC` [Compound 222], the “activity level of plant damage” value was 9. As for `COc1c(N)nc(-c2ccc(C(F)(F)F)c(OC)c2F)nc1C(=O)OCC(F)F` [Compound 61], the figure is 9; as for `COc1cc(-c2nc(N)c(OC)c(C(=O)OCc3ccccn3)n2)ccc1C(F)(F)F` [Compound 150], 9; as for `COCOC(=O)c1nc(-c2ccc(C(F)(F)F)c(OC)c2F)nc(N)c1OC` [Compound 72], 9. With `COc1c(N)nc(-c2ccc(C(F)(F)F)c(OC)c2F)nc1C(=O)OCCBr` [Compound 60], the “activity level of plant damage” value is on record as 9. With `COc1c(N)nc(-c2ccc(C(F)(F)F)c(OC)c2F)nc1C(=O)OCC1CCCO1` (stereo not shown) [Compound 121], the “activity level of plant damage” value is on record as 9. Consider `COc1c(N)nc(-c2ccc(C(F)(F)F)c(OC)c2F)nc1C(=O)[O-].[Na+]` [Compound 200], for which the “activity level of plant damage” value turned out to be 9. In the case of `COc1c(N)nc(-c2ccc(C(F)(F)F)c(OC)c2F)nc1C(=O)OC(C)C` [Compound 26] it was 9.

With `CCSC(=O)c1nc(-c2ccc(C(F)(F)F)c(OC)c2)nc(N)c1OC` [Compound 156], the “activity level of plant damage” value worked out at 9. As for `COc1c(N)nc(-c2ccc(Br)c(OC)c2F)nc1C(=O)OCC(F)F` [Compound 205], the figure is 9. As for `COC(=O)c1nc(-c2ccc(Br)c(OC)c2F)nc(N)c1OC` [Compound 201], the figure is 9; as for `COc1c(N)nc(-c2ccc(Br)c(OC)c2F)nc1C(=O)OCC1CCCO1` (stereo not shown) [Compound 218], 9; as for `COc1c(N)nc(-c2ccc(Br)c(OC)c2F)nc1C(=O)ON=C(C)C` [Compound 210], 9.

As to `COc1c(N)nc(-c2ccc(C(F)(F)F)c(OC)c2F)nc1C(=O)O` [Compound 1], the “activity level of plant damage” value is 9. Consider `COc1c(N)nc(-c2ccc(C(F)(F)F)c(OC)c2F)nc1C(=O)OCCSC` [Compound 100], for which the “activity level of plant damage” value is 9. In the case of `COC(=O)c1nc(-c2ccc(C(F)(F)F)c(OC(F)F)c2F)nc(N)c1OC` [Compound 247] it was 9. Consider `COc1cc(-c2nc(N)c(OC)c(C(=O)OCc3ccncc3)n2)ccc1C(F)(F)F` [Compound 152], for which the “activity level of plant damage” value is 9. In the case of `COCCSC(=O)c1nc(-c2ccc(C(F)(F)F)c(OC)c2F)nc(N)c1OC` [Compound 190] it was 9. Regarding `C=CCOC(=O)c1nc(-c2ccc(C(F)(F)F)c(OC)c2F)nc(N)c1OC` [Compound 52], the “activity level of plant damage” value came out at 9. In the case of `CCCOC(=O)c1nc(-c2ccc(C(F)(F)F)c(OC)c2F)nc(N)c1OC` [Compound 25] it was 9; in that of `COc1c(N)nc(-c2ccc(C(F)(F)F)c(OC)c2F)nc1C(=O)OCCF` [Compound 58], 9; in that of `CCOC(=O)OC(C)OC(=O)c1nc(-c2ccc(C(F)(F)F)c(OC)c2F)nc(N)c1OC` (stereo not shown) [Compound 93], 9. As for `COCCOCCOC(=O)c1nc(-c2ccc(C(F)(F)F)c(OC)c2F)nc(N)c1OC` [Compound 23], the figure is 9; as for `COc1c(N)nc(-c2ccc(C(F)(F)F)c(OC)c2F)nc1C(=O)OCc1ccn(C)n1` [Compound 193], 9. As for `COc1c(N)nc(-c2ccc(Br)c(OC)c2F)nc1C(=O)OC(C)C` [Compound 204], the “activity level of plant damage” value worked out at 9.

For the compound `COC(=O)C(C)OC(=O)c1nc(-c2ccc(C(F)(F)F)c(OC)c2F)nc(N)c1OC` (stereo not shown) [Compound 82], the “activity level of plant damage” value is 9. Take `CCOC(=O)COC(=O)c1nc(-c2ccc(C(F)(F)F)c(OC)c2F)nc(N)c1OC` [Compound 81]: the “activity level of plant damage” value is 9. In the case of `COc1c(N)nc(-c2ccc(C(F)(F)F)c(OC)c2F)nc1C(=O)OCC#N` [Compound 103] it was 9. As for `COc1c(N)nc(-c2ccc(C(F)(F)F)c(OC)c2F)nc1C(=O)OCc1ccccc1` [Compound 130], the figure is 9; as for `COc1c(N)nc(-c2ccc(C(F)(F)F)c(OC)c2F)nc1C(=O)[O-].[K+]` [Compound 199], 9; as for `COc1c(N)nc(-c2ccc(C(F)(F)F)c(OC)c2F)nc1C(=O)OCCO` [Compound 73], 9. In the case of `CCOCCOC(=O)c1nc(-c2ccc(C(F)(F)F)c(OC)c2F)nc(N)c1OC` [Compound 21] it was 9. `COCCOC(=O)c1nc(-c2ccc(Br)c(OC)c2F)nc(N)c1OC` [Compound 212]: the “activity level of plant damage” value is 9.

As to `C#CCOC(=O)c1nc(-c2ccc(C(F)(F)F)c(OC)c2F)nc(N)c1OC` [Compound 57], the “activity level of plant damage” value amounted to 9. In the case of `COc1c(N)nc(-c2ccc(Br)c(OC)c2F)nc1C(=O)OCc1ccccc1` [Compound 219] it was 9. In the case of `COc1c(N)nc(-c2ccc(Br)c(OC)c2F)nc1C(=O)OCC#N` [Compound 209] it was 9.
